From patent US20240360154A1, “AROYL SUBSTITUTED TRICYCLIC COMPOUND, PREPARATION METHOD THEREFOR AND USE THEREOF” (GENFLEET THERAPEUTICS (SHANGHAI) INC., priority 2020, published 2024)

Legend:
TMD-8 cells = assay: TMD-8 proliferation inhibition experiment; assay type: cell-based; conditions: Homo sapiens, TMD8, 72 h, human diffuse large B lymphoma cells, three days incubation
Protocol: TMD-8 cells are human diffuse large B lymphoma (Mingzhou Bio, MZ-0832), cultured in 10% FBS+1% PS 1640 medium; OCI-LY10 is human diffuse large B lymphoma (BeNa Culture Collection, BNCC337742), cultured in 10% FBS+1% PS IMDM. Day 1: Cells at logarithmic growth phase were taken, counted and inoculated 600 TMD-8 or 2000 OCI-LY10 cells in a 384-well cell culture plate and cultured overnight. Day 2: A 3-fold gradient concentration stock solution of 400× compound was prepared with DMSO, and diluted 40-fold to a 10× compound stock solution with culture medium. The 10× compound stock solution was added to each cell culture well with a final concentration of 1× compound stock solution and a DMSO content of 0.25%. DMSO was used as experimental control, and culture medium was used as blank control. The incubation was continued for three days after compound addition. On the fifth day, 25 μL of […] was added to each well, mixed well and incubated for 10 minutes, then the chemiluminescence value (RLU value) was read. The cell proliferation inhibition rate (%)=(RLUcontrol−RLUcompound)/(RLUcontrol−RLUblank)×100% was calculated. The compound gradient dilution concentration and the corresponding cell proliferation inhibition rate were fit by using XLFit four-parameter method, and IC50 value was calculated.

BTK (C481S) = BTK (C481S) (Homo sapiens (Human), UniProt Q06187, C481S); assay: BTK C481S enzyme experiment (ADP-Glo kinase assay); assay type: biochemical; conditions: 10 nM BTK C481S, ATP 125 μM, Poly(Glu4, Tyr1), 90 minutes at 20° C.
Protocol: (§1) A 3-fold gradient concentration stock solution of 1000× compound was prepared using DMSO and diluted 100-fold to 10× compound stock solution using reaction buffer (50 mM HEPES, pH 7.5, 0.0015% Briji-35, 2 mM DTT, 10 mM MgCl2), and the 10× compound stock solution was transferred to a 384-well plate. Enzyme reactions were set up with BTK Kinase Enzyme System (Promega Catalog #V2941) or BTK (C481S) Kinase Enzyme System (Promega Catalog #VA7033). First, a 2× enzyme solution containing 10 nM BTK or 10 nM BTK C481S was prepared with reaction buffer and added to the plate, and incubated with the compound for 10 minutes. […] Finally, the kinase activity was detected according to the experimental steps provided by ADP-Glo™ kinase Assay Kit (Promega, #V9101), and finally the luminescence chemiluminescence value was read. DMSO was used as the maximum signal value, and adding no enzyme was used as the minimum signal value. The inhibition rate of the compound (%)=(maximum signal value−compound signal value)/(maximum signal value−minimum signal value)×100% was calculated. The compound gradient dilution concentration and the corresponding inhibition rate of the enzyme activity were fit by using XLFit four-parameter method, and IC50 value was calculated.

BTK = BTK (Homo sapiens (Human), UniProt Q06187); assay: BTK enzyme experiment (ADP-Glo kinase assay); assay type: biochemical; conditions: 10 nM BTK, ATP 125 μM, Poly(Glu4, Tyr1), 90 minutes at 20° C.; read-out: BTK(WT) IC50
Protocol: as §1

BTK, sequence (Q06187 whole entry): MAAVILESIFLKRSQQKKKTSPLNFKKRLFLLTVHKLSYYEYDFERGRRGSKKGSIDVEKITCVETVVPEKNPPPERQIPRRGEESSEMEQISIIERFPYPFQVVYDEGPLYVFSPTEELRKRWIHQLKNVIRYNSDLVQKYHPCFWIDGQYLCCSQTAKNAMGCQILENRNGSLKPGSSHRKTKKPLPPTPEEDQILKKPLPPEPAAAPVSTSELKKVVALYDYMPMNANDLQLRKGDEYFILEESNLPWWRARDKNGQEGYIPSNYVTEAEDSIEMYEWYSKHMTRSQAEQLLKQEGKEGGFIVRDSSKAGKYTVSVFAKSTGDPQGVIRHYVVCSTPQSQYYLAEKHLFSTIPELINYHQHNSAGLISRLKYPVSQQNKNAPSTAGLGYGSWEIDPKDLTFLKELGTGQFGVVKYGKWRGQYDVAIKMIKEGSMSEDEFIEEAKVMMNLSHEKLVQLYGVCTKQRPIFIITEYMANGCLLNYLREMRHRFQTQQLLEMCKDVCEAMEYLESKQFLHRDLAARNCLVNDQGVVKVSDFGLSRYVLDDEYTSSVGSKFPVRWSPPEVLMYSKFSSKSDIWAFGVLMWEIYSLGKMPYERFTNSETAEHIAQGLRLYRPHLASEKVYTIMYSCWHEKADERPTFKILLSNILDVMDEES
BTK (C481S), sequence (Q06187 whole entry C481S): as the sequence (Q06187 whole entry) above, with C481S counted along it

Row | SMILES | IC50 (BTK (C481S)) [nM] | IC50 (BTK) [nM] | IC50 (TMD-8 cells) [nM]
1 | [2H]C([2H])([2H])Oc1cccc(F)c1Oc1ccc(C(=O)c2c[nH]c3ncc4c(c23)N[C@@](C)(COC)C(=O)N4)c(Cl)c1 [Z187] |  |  | 41.3
2 | COC[C@]1(C)Nc2c(cnc3[nH]cc(C(=O)c4ccc(Oc5ccccc5)cc4)c23)NC1=O [Z125-1, (S)-2-(methoxymethyl)-2-methyl-9-(4-phenoxybenzoyl)-1,2,4,7-tetrahydro-3H-pyrrolo[3′,2′:5,6]pyrido[3,4-b]pyrazin-3-one] | 29.1 | 28.2 | 
3 | COCC1(C)Nc2c(cnc3[nH]cc(C(=O)c4ccc(Oc5cc(C)ccn5)cc4F)c23)NC1=O (single isomer, unassigned) [Z69-1, 9-(2-fluoro-4-((4-methylpyridin-2-yl)oxy)benzoyl)-2-(methoxymethyl)-2-methyl-1,2,4,7-tetrahydro-3H-pyrrolo[3′,2′:5,6]pyrido[3,4-b]pyrazin-3-one] | 21.2 | 13.9 | 
4 | COC[C@]1(C)Nc2c(cnc3[nH]cc(C(=O)c4ccc(Oc5cc(C)cc(C)n5)cc4Cl)c23)NC1=O [Z127-1, (S)-9-(2-chloro-4-((4,6-dimethylpyridin-2-yl)oxy)benzoyl)-2-(methoxymethyl)-2-methyl-1,2,4,7-tetrahydro-3H-pyrrolo[3′,2′:5,6]pyrido[3,4-b]pyrazin-3-one] | 31.5 | 29.1 | 
5 | COCC1(C)Nc2c(cnc3[nH]cc(C(=O)c4ccc(Oc5cc(C)ccn5)cc4Cl)c23)NC1=O (single isomer, unassigned) [Z64-2, 9-(2-chloro-4-((4-methylpyridin-2-yl)oxy)benzoyl)-2-(methoxymethyl)-2-methyl-1,2,4,7-tetrahydro-3H-pyrrolo[3′,2′:5,6]pyrido[3,4-b]pyrazin-3-one] | 17.2 | 8.4 | 
6 | N#C[C@H]1CC[C@@]2(C1)Nc1c(cnc3[nH]cc(C(=O)c4ccc(Oc5ccccc5)cc4Cl)c13)NC2=O (single isomer, unassigned) [Z26-4] | 28.5 | 35.9 | 
7 | COCC1(C)Nc2c(cnc3[nH]cc(C(=O)c4ccc(Oc5cc(C6CC6)ccn5)cc4Cl)c23)NC1=O (single isomer, unassigned) [Z73-1, 9-(2-chloro-4-((4-cyclopropylpyridin-2-yl)oxy)benzoyl)-2-(methoxymethyl)-2-methyl-4,7-dihydro-1H-pyrrolo[3′,2′:5,6]pyrido[3,4-b]pyrazin-3(2H)-one] | 29.5 | 15.3 | 
8 | COC[C@]1(C)Nc2c(cnc3[nH]cc(C(=O)c4ccc(Oc5cc(C)cc(C)n5)cc4F)c23)NC1=O [Z189-1, (S)-9-(4-((4,6-dimethylpyridin-2-yl)oxy)-2-fluorobenzoyl)-2-(methoxymethyl)-2-methyl-1,2,4,7-tetrahydro-3H-pyrrolo[3′,2′:5,6]pyrido[3,4-b]pyrazin-3-one] | 60.3 | 50.4 | 
9 | CCOC[C@@]1(C)Nc2c(cnc3[nH]cc(C(=O)c4ccc(Oc5ccccc5)cc4Cl)c23)NC1=O (single isomer, unassigned) [Z67-2] | 17.8 | 20.4 | 

Continued, in another order:

Row | IC50 (BTK (C481S)) [nM] | IC50 (BTK) [nM] | SMILES | IC50 (TMD-8 cells) [nM]
10 | 23.2 | 42.6 | COC[C@]1(C)Nc2c(cnc3[nH]cc(C(=O)c4ccccc4Cl)c23)N=C1SC [Z199, (S)-(2-chlorophenyl)(2-(methoxymethyl)-2-methyl-3-(methylthio)-2,7-dihydro-1H-pyrrolo[3′,2′:5,6]pyrido[3,4-b]pyrazin-9-yl)methanone] | 
11 | 88.8 | 58.9 | COC[C@]1(C)Nc2c(cnc3[nH]cc(C(=O)c4ccc(Oc5cc(C)nc(Cl)c5)cc4Cl)c23)NC1=O [Z135, (S)-9-(2-chloro-4-((2-chloro-6-methylpyridin-4-yl)oxy)benzoyl)-2-(methoxymethyl)-2-methyl-1,2,4,7-tetrahydro-3H-pyrrolo[3′,2′:5,6]pyrido[3,4-b]pyrazin-3-one] | 
12 | 115 | 76.6 | [2H]C([2H])([2H])OC[C@]1(C)Nc2c(cnc3[nH]cc(C(=O)c4ccc(Cn5ccc(C)n5)cc4Cl)c23)NC1=O [Z174, (S)-9-(2-chloro-4-((3-methyl-1H-pyrazol-1-yl)methyl)benzoyl)-2-((methoxy-d3)methyl)-2-methyl-1,2,4,7-tetrahydro-3H-pyrrolo[3′,2′:5,6]pyrido[3,4-b]pyrazin-3-one] | 
13 | 3.2 | 5.8 | COC[C@]1(C)Nc2c(cnc3[nH]cc(C(=O)c4ccccc4Cl)c23)NC1=O [Z79, (S)-9-(2-chlorobenzoyl)-2-(methoxymethyl)-2-methyl-1,2,4,7-tetrahydro-3H-pyrrolo[3′,2′:5,6]pyrido[3,4-b]pyrazin-3-one] | 
14 | 25.8 | 26.4 | COC[C@]1(C)Nc2c(cnc3[nH]cc(C(=O)c4c(F)cccc4Cl)c23)NC1=O [Z196, (S)-9-(2-chloro-6-fluorobenzoyl)-2-(methoxymethyl)-2-methyl-1,2,4,7-tetrahydro-3H-pyrrolo[3′,2′:5,6]pyrido[3,4-b]pyrazin-3-one] | 
15 | 20.1 | 16.3 | [2H]C([2H])([2H])N1C(=O)[C@](C)(COC)Nc2c1cnc1[nH]cc(C(=O)c3ccc(Oc4ccccc4)cc3Cl)c21 [Z190, (S)-9-(2-chloro-4-phenoxybenzoyl)-2-(methoxymethyl)-2-methyl-4-(methyl-d3)-1,2,4,7-tetrahydro-3H-pyrrolo[3′,2′:5,6]pyrido[3,4-b]pyrazin-3-one] | 
16 | 129 | 185 | CN(C)CCN1C(=O)C(C)(C)Nc2c1cnc1[nH]cc(C(=O)c3ccc(Oc4ccccc4)cc3Cl)c21 [Z63] | 
17 | 15.1 | 17.4 | CC1(C)COc2cnc3[nH]cc(C(=O)c4ccccc4Cl)c3c2N1 [Z198, (2-chlorophenyl)(2,2-dimethyl-1,2,3,7-tetrahydropyrrolo[3′,2′:5,6]pyrido[3,4-b][1,4]oxazin-9-yl)methanone] | 
18 | 12.6 | 23.1 | CN1CCCC2(C1)Nc1c(cnc3[nH]cc(C(=O)c4ccc(Oc5ccccc5)cc4Cl)c13)NC2=O (stereo not shown) [Z19, 9′-(2-chloro-4-phenoxybenzoyl)-1-methyl-4′,7′-dihydrospiro[piperidine-3,2′-pyrrolo[3′,2′:5,6]pyrido[3,4-b]pyrazin]-3′(1′H)-one] | 
19 | 77.4 | 47.3 | COC[C@]1(C)Nc2c(cnc3[nH]cc(C(=O)c4ccc(OC)c(F)c4Cl)c23)NC1=O [Z194, (S)-9-(2-chloro-3-fluoro-4-methoxybenzoyl)-2-(methoxymethyl)-2-methyl-1,2,4,7-tetrahydro-3H-pyrrolo[3′,2′:5,6]pyrido[3,4-b]pyrazin-3-one] | 
20 | 87.7 | 145 | O=C(c1ccc(Oc2ccccc2)cc1Cl)c1c[nH]c2ncc3c(c12)NC1(CCOC1)CO3 (stereo not shown) [Z18] | 
21 | 9.7 | 16 | COC[C@]1(C)Nc2c(cnc3[nH]cc(C(=O)c4ccccc4Br)c23)NC1=O [Z86, (S)-9-(2-bromobenzoyl)-2-(methoxymethyl)-2-methyl-1,2,4,7-tetrahydro-3H-pyrrolo[3′,2′:5,6]pyrido[3,4-b]pyrazin-3-one] | 
22 | 28 | 34.8 | COCC1(C)Nc2c(cnc3[nH]cc(C(=O)c4ccc(Oc5cc(C)ccn5)cc4F)c23)NC1=O (stereo not shown) [Z69, 9-(2-fluoro-4-((4-methylpyridin-2-yl)oxy)benzoyl)-2-(methoxymethyl)-2-methyl-1,2,4,7-tetrahydro-3H-pyrrolo[3′,2′:5,6]pyrido[3,4-b]pyrazin-3-one] | 
23 | 7.5 | 23.4 | COC[C@]1(C)Nc2c(cnc3[nH]cc(C(=O)c4ccccc4)c23)NC1=O [Z89, (S)-9-benzoyl-2-(methoxymethyl)-2-methyl-1,2,4,7-tetrahydro-3H-pyrrolo[3′,2′:5,6]pyrido[3,4-b]pyrazin-3-one] | 
24 | 27.8 | 23.8 | COC[C@]1(C)Nc2c(cnc3[nH]cc(C(=O)c4ccc(Oc5ccccc5)cc4Cl)c23)NC1=S [Z202, (S)-(2-chloro-4-phenoxyphenyl)(2-(methoxymethyl)-2-methyl-3-thioxo-2,3,4,7-tetrahydro-1H-pyrrolo[3′,2′:5,6]pyrido[3,4-b]pyrazin-9-yl)methanone] | 
25 | 19.7 | 35.2 | COCCN1C(=O)[C@](C)(COC)Nc2c1cnc1[nH]cc(C(=O)c3ccc(Oc4ccccc4)cc3Cl)c21 [Z142] | 
